Measurements taken from ChEMBL document CHEMBL5465560, “Selectivity Literature for EUbOPEN Chemogenomic Library” (2024).

Key:
[1] = biological target: Protein arginine N-methyltransferase 3 (Homo sapiens, UniProt O60678); assay: Selectivity interaction (Scintillation proximity assays) EUB0000230b PRMT3
[2] = biological target: Tyrosine-protein kinase JAK1 (Homo sapiens, UniProt P23458); conditions: at 10 µM
[3] = biological target: T1, Serine/threonine-protein kinase D2 (Homo sapiens) (UniProt Q9BZL6); assay: Selectivity interaction (Ambit KINOMEscan and KiNATiv profiling in Jurkat cells) EUB0000090b PRKD2; type: cell-based; conditions: at 1 µM
T1 sequence (whole entry): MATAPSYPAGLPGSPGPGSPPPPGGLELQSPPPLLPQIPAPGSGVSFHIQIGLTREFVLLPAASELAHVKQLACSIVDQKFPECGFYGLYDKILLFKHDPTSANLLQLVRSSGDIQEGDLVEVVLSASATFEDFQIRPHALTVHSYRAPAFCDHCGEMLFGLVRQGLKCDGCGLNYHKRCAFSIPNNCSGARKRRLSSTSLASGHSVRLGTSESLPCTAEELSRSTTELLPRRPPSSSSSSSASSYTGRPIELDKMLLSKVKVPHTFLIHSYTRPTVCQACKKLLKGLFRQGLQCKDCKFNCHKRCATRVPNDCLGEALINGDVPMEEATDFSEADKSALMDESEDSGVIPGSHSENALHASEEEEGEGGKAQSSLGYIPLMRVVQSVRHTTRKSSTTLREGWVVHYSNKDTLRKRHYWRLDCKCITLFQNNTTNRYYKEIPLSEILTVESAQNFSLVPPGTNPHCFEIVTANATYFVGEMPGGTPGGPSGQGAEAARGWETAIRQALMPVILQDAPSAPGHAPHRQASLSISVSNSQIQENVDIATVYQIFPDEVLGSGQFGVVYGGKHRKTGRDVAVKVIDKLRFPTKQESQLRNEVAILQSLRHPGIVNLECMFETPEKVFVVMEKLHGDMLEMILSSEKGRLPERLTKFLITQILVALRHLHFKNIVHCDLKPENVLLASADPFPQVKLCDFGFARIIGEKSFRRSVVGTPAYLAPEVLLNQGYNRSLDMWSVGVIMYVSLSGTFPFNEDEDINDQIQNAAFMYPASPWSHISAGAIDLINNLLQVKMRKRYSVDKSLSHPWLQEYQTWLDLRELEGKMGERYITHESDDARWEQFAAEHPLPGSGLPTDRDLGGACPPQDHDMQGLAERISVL

[4] = biological target: Histone-lysine N-methyltransferase, H3 lysine-36 specific (Homo sapiens) (UniProt Q96L73); assay: Selectivity interaction (Methyltransferase screen (Scintillation proximity assays)) EUB0000255b NSD1; conditions: at 1 µM
[5] = biological target: Tyrosine-protein kinase Fgr (Homo sapiens) (UniProt P09769); assay: Selectivity interaction (KinomeScan (DiscoverX)) EUB0001619a FGR; conditions: at 1 µM
[6] = biological target: MAP kinase-interacting serine/threonine-protein kinase 1 (Homo sapiens) (UniProt Q9BUB5); assay: Selectivity interaction (KinomeScan (DiscoverX)) EUB0001619a MKNK1; conditions: at 1 µM
[7] = biological target: Macrophage colony-stimulating factor 1 receptor (Homo sapiens) (UniProt P07333); assay: Selectivity interaction (Upstate Kinase Profiler service (Millipore)) EUB0000056c CSF1R; conditions: at 1 µM
[8] = biological target: T2, Ephrin type-B receptor 1 (Homo sapiens) (UniProt P54762); assay: Selectivity interaction (KinomeScan (DiscoverX)) EUB0000655a EPHB1; conditions: at 10 µM
T2 sequence (whole entry): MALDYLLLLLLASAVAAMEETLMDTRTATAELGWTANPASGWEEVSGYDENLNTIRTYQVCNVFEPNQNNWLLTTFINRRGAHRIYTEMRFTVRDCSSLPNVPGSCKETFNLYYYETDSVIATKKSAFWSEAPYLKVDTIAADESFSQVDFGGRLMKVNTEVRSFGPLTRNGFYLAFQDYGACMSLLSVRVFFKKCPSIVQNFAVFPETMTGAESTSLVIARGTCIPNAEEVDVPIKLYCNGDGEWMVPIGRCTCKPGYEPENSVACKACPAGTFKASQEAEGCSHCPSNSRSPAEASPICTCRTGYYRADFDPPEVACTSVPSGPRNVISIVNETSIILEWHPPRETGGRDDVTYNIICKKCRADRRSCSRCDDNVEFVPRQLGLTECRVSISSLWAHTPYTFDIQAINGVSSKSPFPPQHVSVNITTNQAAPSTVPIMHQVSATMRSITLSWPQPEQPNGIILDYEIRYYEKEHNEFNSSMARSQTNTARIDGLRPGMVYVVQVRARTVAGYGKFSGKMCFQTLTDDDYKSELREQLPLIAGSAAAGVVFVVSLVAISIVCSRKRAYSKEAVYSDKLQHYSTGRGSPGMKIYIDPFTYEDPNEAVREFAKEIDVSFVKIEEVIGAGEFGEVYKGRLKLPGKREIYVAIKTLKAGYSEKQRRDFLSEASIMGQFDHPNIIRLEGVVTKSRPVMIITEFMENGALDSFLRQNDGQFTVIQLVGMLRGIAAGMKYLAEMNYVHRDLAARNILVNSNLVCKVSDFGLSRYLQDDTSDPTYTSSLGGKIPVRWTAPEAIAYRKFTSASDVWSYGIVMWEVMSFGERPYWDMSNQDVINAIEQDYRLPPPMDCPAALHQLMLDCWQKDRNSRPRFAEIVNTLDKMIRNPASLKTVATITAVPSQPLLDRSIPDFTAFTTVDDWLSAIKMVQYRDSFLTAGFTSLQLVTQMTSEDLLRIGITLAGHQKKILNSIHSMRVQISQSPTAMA

[9] = test system: Hepatocyte growth factor receptor (Homo sapiens), P08581 [M1250T]; assay: (§1) Selectivity interaction (Kinase panel (Z-LYTE Assay)) EUB0001632a MET; conditions: at 10 µM
[10] = biological target: Hepatocyte growth factor receptor (Homo sapiens, UniProt P08581); assay: as §1; conditions: at 10 µM
Sequence of Hepatocyte growth factor receptor (P08581 whole entry): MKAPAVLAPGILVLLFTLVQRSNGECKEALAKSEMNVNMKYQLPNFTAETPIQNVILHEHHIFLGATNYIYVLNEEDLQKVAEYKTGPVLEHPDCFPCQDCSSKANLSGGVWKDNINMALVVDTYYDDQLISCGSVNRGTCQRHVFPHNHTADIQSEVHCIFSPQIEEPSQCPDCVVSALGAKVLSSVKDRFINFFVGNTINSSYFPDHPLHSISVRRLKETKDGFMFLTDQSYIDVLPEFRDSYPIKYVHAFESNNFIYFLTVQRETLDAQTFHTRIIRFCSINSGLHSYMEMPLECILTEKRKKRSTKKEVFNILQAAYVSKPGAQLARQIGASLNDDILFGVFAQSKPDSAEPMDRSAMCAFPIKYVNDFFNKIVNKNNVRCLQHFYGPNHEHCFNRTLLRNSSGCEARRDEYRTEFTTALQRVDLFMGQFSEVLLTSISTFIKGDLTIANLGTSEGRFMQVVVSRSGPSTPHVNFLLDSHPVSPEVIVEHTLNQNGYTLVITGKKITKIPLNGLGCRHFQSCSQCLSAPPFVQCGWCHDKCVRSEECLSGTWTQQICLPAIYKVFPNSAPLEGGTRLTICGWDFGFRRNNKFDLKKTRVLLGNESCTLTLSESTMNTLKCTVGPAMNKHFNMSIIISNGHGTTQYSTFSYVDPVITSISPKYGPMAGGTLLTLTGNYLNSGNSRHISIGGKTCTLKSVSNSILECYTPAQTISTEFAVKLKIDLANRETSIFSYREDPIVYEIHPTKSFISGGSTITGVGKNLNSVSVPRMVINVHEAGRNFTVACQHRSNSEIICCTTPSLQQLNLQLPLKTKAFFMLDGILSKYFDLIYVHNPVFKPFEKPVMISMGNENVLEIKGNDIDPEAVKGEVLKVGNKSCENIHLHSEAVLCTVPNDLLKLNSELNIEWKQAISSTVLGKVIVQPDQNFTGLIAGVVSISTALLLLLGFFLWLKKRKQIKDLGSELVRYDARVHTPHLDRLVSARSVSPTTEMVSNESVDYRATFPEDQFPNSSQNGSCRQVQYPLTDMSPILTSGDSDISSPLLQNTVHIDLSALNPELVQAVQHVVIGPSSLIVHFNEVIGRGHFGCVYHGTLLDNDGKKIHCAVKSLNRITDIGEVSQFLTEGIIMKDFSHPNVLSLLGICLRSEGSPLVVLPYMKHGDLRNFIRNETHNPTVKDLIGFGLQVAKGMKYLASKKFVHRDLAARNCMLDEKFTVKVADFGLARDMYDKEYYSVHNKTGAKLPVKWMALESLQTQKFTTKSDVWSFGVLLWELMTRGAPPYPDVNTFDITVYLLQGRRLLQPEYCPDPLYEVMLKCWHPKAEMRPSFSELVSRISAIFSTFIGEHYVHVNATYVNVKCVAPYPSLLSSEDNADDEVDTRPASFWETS

Sequence of Tyrosine-protein kinase Fgr (Homo sapiens) (P09769 2-529 limits assumed): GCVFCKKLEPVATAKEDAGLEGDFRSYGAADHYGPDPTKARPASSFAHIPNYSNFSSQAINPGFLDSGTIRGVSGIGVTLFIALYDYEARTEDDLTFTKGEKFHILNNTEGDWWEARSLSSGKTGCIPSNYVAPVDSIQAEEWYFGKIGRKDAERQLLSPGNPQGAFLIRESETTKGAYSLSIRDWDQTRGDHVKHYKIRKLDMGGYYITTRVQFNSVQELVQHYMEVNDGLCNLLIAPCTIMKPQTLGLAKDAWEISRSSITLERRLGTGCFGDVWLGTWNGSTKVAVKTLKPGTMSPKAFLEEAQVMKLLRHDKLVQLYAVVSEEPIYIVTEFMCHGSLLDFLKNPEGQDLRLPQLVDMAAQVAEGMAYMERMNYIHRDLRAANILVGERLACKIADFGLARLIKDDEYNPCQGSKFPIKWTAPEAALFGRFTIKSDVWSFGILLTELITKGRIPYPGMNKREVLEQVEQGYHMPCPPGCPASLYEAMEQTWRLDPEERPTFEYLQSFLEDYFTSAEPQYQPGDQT
Sequence of Histone-lysine N-methyltransferase, H3 lysine-36 specific (Homo sapiens) (Q96L73 whole entry): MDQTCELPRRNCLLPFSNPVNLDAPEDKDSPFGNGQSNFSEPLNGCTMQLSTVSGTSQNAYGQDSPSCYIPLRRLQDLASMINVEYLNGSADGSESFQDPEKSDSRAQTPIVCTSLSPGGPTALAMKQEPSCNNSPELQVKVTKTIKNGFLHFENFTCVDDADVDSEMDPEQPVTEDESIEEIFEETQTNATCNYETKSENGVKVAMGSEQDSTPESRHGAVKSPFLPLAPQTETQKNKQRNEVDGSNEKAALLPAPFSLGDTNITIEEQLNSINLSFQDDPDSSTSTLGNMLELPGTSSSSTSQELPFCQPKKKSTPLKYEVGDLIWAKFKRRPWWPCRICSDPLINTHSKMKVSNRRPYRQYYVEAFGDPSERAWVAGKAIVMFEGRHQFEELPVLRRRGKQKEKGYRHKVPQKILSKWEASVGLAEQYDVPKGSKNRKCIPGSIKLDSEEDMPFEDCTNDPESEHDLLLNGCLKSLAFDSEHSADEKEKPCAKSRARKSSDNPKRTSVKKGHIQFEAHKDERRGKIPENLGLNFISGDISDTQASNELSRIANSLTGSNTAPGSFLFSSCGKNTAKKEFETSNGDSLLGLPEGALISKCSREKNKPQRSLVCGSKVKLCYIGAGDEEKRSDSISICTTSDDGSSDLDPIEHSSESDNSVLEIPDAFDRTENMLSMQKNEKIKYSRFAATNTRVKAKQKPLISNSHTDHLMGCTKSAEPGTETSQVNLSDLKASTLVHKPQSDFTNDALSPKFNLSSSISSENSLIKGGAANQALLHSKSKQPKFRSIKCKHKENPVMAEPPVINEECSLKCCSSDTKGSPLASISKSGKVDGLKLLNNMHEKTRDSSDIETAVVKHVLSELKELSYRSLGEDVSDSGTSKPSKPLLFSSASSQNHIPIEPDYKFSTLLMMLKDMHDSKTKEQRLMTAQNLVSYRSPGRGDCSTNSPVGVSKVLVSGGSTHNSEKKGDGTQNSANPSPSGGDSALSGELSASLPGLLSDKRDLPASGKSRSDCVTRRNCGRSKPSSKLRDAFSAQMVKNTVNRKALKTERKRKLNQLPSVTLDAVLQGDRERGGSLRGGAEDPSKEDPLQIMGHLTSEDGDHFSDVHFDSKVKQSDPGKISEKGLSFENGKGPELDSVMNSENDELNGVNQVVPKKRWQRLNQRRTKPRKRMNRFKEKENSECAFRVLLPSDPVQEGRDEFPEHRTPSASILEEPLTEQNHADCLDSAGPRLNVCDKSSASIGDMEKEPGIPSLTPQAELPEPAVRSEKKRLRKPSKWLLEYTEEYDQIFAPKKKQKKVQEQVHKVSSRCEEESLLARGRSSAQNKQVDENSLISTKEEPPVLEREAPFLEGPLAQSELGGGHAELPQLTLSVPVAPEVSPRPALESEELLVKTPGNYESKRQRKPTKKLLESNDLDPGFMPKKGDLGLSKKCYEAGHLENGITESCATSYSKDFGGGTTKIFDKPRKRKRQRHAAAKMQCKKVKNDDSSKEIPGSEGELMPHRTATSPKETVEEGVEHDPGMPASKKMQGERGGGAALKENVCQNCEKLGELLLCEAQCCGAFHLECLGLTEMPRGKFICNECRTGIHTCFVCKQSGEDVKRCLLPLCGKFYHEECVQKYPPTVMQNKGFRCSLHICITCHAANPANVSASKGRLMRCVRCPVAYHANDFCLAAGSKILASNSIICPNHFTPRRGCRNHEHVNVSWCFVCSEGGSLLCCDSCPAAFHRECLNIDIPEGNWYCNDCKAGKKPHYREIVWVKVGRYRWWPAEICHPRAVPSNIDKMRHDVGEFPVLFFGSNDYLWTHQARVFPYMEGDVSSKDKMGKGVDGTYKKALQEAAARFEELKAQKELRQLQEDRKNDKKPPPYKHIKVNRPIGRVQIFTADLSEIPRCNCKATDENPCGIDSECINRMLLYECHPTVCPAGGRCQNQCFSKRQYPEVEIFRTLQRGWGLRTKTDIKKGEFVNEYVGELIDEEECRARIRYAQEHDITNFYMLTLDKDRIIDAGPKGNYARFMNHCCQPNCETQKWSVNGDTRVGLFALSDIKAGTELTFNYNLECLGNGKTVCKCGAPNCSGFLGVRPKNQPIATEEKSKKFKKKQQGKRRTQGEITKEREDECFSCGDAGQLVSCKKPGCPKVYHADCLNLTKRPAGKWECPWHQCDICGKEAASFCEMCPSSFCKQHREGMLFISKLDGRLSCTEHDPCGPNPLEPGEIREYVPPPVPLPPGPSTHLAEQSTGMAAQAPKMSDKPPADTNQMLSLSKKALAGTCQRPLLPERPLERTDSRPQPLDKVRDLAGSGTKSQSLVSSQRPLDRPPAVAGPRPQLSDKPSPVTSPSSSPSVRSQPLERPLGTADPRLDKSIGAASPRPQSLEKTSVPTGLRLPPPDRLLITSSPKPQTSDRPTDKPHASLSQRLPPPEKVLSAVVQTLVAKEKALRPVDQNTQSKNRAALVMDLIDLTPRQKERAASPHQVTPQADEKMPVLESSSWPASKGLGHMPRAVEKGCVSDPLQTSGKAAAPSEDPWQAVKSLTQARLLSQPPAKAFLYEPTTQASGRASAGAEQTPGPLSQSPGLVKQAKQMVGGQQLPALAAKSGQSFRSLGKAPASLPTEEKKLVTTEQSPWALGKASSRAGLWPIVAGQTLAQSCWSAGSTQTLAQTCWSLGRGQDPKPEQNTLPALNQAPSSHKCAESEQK
Sequence of Protein arginine N-methyltransferase 3 (O60678 whole entry): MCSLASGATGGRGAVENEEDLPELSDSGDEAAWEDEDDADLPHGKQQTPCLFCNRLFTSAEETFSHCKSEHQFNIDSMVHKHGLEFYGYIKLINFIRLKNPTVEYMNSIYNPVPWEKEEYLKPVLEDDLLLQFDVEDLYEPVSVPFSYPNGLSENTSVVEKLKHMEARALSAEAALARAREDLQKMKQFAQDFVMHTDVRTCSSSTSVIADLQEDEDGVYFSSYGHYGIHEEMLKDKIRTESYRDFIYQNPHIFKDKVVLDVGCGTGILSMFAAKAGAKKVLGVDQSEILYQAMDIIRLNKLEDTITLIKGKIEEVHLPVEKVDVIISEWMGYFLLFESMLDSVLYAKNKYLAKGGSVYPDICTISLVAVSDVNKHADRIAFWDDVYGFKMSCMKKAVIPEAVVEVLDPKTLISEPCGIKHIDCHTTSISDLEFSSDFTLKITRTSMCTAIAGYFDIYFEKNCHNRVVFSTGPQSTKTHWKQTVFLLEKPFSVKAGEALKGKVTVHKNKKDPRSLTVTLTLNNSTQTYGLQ

**Q.** With CNCCN1CCC(c2cc(CN(C)C(=O)c3cccc(Oc4ccccc4)c3)ccn2)CC1 as the compound, how does the IC50 [1] read?
**A.** The IC50 was > 10 µM.

**Q.** For CCN(CC)CCCCNc1ncc2cc(-c3cc(OC)cc(OC)c3)c(NC(=O)NC(C)(C)C)nc2n1, which % of control [2] is on record?
**A.** Its % of control is 100%.

**Q.** With CN(C)C/C=C/C(=O)Nc1ccc(C(=O)N2CCCC(Nc3ncc(Cl)c(-c4c[nH]c5ccccc45)n3)C2)cc1 (stereo not given) as the compound, how does the % of control [3] read?
**A.** The % of control was 55%.

**Q.** Which % activity [4] does the source give for COCCN1CCC(c2cc(CN(C)C(=O)c3cccc(Oc4ccccc4)c3)ccn2)CC1 here?
**A.** The % activity was 90%.

**Q.** Which results are given for N#Cc1cccc(-c2c[nH]c3ncnc(N4CCOCC4)c23)c1?
**A.** % of control [5]: 100%; % of control [6]: 100%

**Q.** Cc1ccc(-c2ccc3c(ccc4sc5c(c43)NC[C@@H](C)NC5=O)n2)cn1 was tested. Which % of inhibition [7] did it give?
**A.** The % of inhibition was 13%.

**Q.** How did the % of control [8] turn out when CN(C)CCOc1ccc(-c2nc(-c3ccncc3)c(-c3ccc4c(c3)CC/C4=N\O)[nH]2)cc1 was run?
**A.** The % of control was 100%.

**Q.** Cn1cc(-n2cnc3c(NCc4nc5cc(Cl)c(Cl)cc5[nH]4)nc(N4CCOCC4)nc32)cn1 was tested. Which % of control [9] did it give?
**A.** The % of control was 1.3%.

**Q.** What about the % of control [10] of the same compound?
**A.** The % of control was -11.4%.
